The values below come from patent US20130274212A1, “Sesterterpene Compounds and Use Thereof” (SNU R&DB FOUNDATION, priority 2010, published 2013).

Structures are written as SMILES. pEC50, pIC50: −log10 of the molar value.

One test concerns the target Nurr1 (Mus musculus, UniProt Q06219). The test is described as follows: GAL-mNurr1 luciferase reporter transfection assay in CV-1 cells. The test is classed as cell-based. As to conditions: GAL-mNurr1, luciferase corrected by β-galactosidase, 24 hours. On the procedure: (§1) Animal cell line CV-1 was used in transfection search. Cells were cultured in DMEM medium within a cell incubator containing 5% carbon dioxide at 37° C. The medium contained 10% fetal bovine serum (FBS), 100 U/ml penicillin, and 100 μg/ml streptomycin. On day 1 of the experiment, CV1 cells were seeded in a 96-well plate at 5,000 cells/well. On day 2, the seeded cells were transfected with plasmid expressing GAL-mNurr1, plasmid expressing luciferase gene, and plasmid expressing β-galactosidase by using a transfection reagent, Superfect (QIAGEN). After 16 hours, the transfected cells were treated with compounds of Chemical Formula I dissolved in dimethylsulfoxide (DMSO) by the concentrations. Cells treated with dimethylsulfoxide having the final concentration of 1% were used as a negative control group. After culturing for 24 hours, the cells were lysed by using a lysis buffer, and luciferin was added thereto to measure the luciferase activity by a luminometer. After addition of an ONPG reagent, β-galactosidase activity was measured by an ELISA reader. The measured luciferase value was corrected by the activity value of β-galactosidase. […] Accordingly, it was verified that the compounds of Chemical Formula I were compounds selective to Nurr1.
Background: A reporter such as luciferase makes a cellular process visible.

The next test has as its system LXR. In words: GAL-hLXRa or GAL-hLXRB luciferase reporter antagonist assay in CV-1 cells. The test is classed as cell-based, human. As to conditions: LXR agonist T0901517 500 nM. On the procedure:
as §1, with “expressing GAL-hLXRa or GAL-hLXRB,” for “expressing GAL-mNurr1,”, “expressing β-galactosidase,” for “expressing β-galactosidase”, “the concentrations (here, the final concentration of the LXR agonist, T0901517, was 500 nM).” for “the concentrations.”, “I are antagonist” for “I were”, “to LXR.” for “to Nurr1.”

For test [1], the system named is C57BL/6 mice administered with MPTP. The test is described as follows: MPTP-induced Parkinson's disease mice, Rotarod exercise capacity. It counts as in vivo, mouse. To be noted: oral 5 mg/kg once per day for 5 days before MPTP 25 mg/kg; measured after 3 days. An excerpt:
In the present example, in order to verify efficacy to prevent and treat Parkinson's Disease of the compound of Chemical Formula I according to the present invention in the Parkinson's Disease as one of neurodegenerative diseases, mice administered with 1-methyl-4-phenyl-1,2,3,6-tetrahydropyridine (MPTP) were used. The efficacy to prevent and treat the Parkinson's Disease was verified by administering the compound of Chemical Formula I (CMDD-X or Compound 7) to a Parkinson's Disease-induced disease model and then measuring exercise capacity of the mice. C57BL/6 mice (male, 12-week old) were used. The mice were adapted to a housing environment for 1 week while pellet type general diet was supplied, and then divided into 3 groups of 5 mice each to have similar body weights. Before MPTP administration, the compound CMDD-X was orally administered at a concentration of 5 mg/kg. After 3 hours, probenecid as MPTP efflux inhibitor was intraperitoneally administered to the mice at a concentration of 250 mg/kg, and, after 2 hours, 25 mg/kg of MPTP was intraperitoneally administered. Administration was conducted once per one day for a total of 5 days, and, after 3 days, exercise capacity of the mice was measured by using the Rotarod. […]
For orientation: In the rotarod test animals must keep their balance on a rotating rod.

The subject of the next test is db/db mice. In words: Renal failure as diabetes complication: blood urea nitrogen in db/db mice. It counts as in vivo, mouse. As to conditions: oral 10 mg/kg/day, 4 weeks. On the procedure: In order to verify the efficacy to treat renal failure as a diabetes complication, a db/db disease animal model was used. 8-week old db/db mice were orally administered with the compound of Chemical Formula I (CMDD-X or Compound 7) at a dose of 10 mg/kg/day for 4 weeks, and then the blood urea nitrogen as a marker to treat renal failure was measured.

Test [2] relates to Gyk, LXR, SREBP1c, SCD1, PPARa, UCP gene expression. The test is described as follows: Gene expression analysis (micro-array, Q-RT PCR) in diabetic mice fed with compound. The test is classed as in vivo, mouse. On the procedure: Gene expression analysis was conducted to establish the mechanism. The gene analysis was conducted by using micro-array and the Q-RT PCR method. […] Expressions of PPARa and UCP, which are genes for burning the newly generated fat to release heat, were increased (FIG. 13).

Test [3] deals with BKS.Cg-+Lepr^db/+Lepr^db (db/db) mice. The test is described as follows: Anti-diabetic efficacy in db/db mice (blood sugar, insulin, adiponectin, glucose and insulin tolerance). It counts as in vivo, mouse. How it is done: In the present example, in order to verify efficacy to prevent and treat diabetes of the compound of Chemical Formula I (CMDD-X or Compound 7) according to the present invention, BKS.Cg-+Lepr^db/+Lepr^db (db/db) mice as an insulin-independent diabetes animal model and general mice (C57BL/6J) fed with high-fat feedstuff were used. After the disease animal model was orally administered with CMDD-X, the diabetes-related index between the administered group and the control group was measured to verify the efficacy as an agent for preventing and treating diabetes. BKS.Cg-+Lepr^db/+Lepr^db (db/db) mice (male, 7-week old) as type 2 diabetes animal model were purchased and used. The experiment animals were adapted to a housing environment for 1 week while pellet type general diet (lab-chow) was supplied, and then divided into 2 groups of 18 mice each by randomized block design to have similar blood sugar and body weight. For general mice fed with high-fat feedstuff as another animal model, 6-week old C57BL/6J mice was purchased, and then were adapted to a lap environment for 2 weeks. After that, high-fat diet containing 35% fat diet (weight ratio, Research Diets. Co. Ltd.) was supplied for 14 weeks. The efficacy to prevent and treat diabetes by CMDD-X was observed through oral administration. A mouse fed with only 0.5% carboxylmethyl cellulose, as a medicine delivery, was used as a negative control group. The medicine was orally administered to the db/db mice for 4 weeks, a total of 28 days, and to the C57BL/6J mice, which was fed with the high-fat diet, for the last 6 weeks, at a dose of 10 mg/kg/day. The experiment animals after administration were fasted for 15 hours before autopsy, and then the blood taken from the orbital venous treated with heparin. […] The other organ tissues were rapidly cooled in the liquid nitrogen immediately after removal thereof, and kept at −70° C. and then analyzed. T-test was conducted with respect to the control group and the administered group, a significant difference of less than 5% (P<0.05) was determined as having have a statistical significance.
In order to measure the blood sugar reduction efficacy of the compound of Chemical Formula I (CMDD-X or Compound 7), the blood was collected through tail veins of the db/db mice before experiment ending, after feeding, and after stomach was empty for 15 hours, and the blood sugar was measured by using a glucose oxidase method. […]
The insulin and adiponectin concentrations of the plasma, obtained from the orbital venous of the db/db mice orally administered with CMDD-X (or Compound 7) for 4 weeks, were measured by using an Elisa Kit. […]

Chain of Nurr1 (Q06219 360-598 limits assumed): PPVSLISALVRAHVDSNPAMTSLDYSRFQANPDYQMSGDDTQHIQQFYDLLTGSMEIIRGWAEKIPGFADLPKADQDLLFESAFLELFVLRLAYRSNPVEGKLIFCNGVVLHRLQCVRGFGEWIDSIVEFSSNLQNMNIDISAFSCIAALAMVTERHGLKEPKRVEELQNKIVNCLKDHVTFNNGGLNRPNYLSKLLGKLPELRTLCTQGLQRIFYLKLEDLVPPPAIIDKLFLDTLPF

`CC(C)=CCC/C(C)=C/[C@@H]1CC(C)=C[C@]2(C=C(COS(=O)(=O)c3ccc(C)cc3)[C@H]3CC(=O)C(C)=C[C@H]3O2)O1` [Compound 1] showed a pEC50 on Nurr1 of 7.55. This compound also had a pIC50 with LXR of 7.68.

Regarding `CC(C)=CCC/C(C)=C/[C@@H]1CC(C)=C[C@]2(C=C(C=O)[C@H]3CC(=O)C(C)=C[C@H]3O2)O1` [Compound 4], the pEC50 at Nurr1 is 8.15. In the test with LXR, this compound gave a pIC50 of 8.30.

`CC(C)=CCC/C(C)=C/[C@@H]1CC(C)=C[C@]2(C=C(CF)[C@H]3CC(=O)C(C)=C[C@H]3O2)O1` [Compound 7] had a pEC50 at Nurr1 of 7.49. Also, the pIC50 with LXR is 7.96. Moreover, the “exercise capacity (Rotarod)” value in test [1] is reported as “the same results as CMDD-X”. In the test with db/db mice, the “efficacy on renal failure (blood urea nitrogen)” value was “somewhat superior efficacy as compared with CMDD-X”. For the same compound, in test [2], the “expressions of LXR, SREBP1c, and SCD1” value is given as “very increased”. The “expression of Gyk (glycolysis biomarker), increase” value in test [2] (micro-array and Q-RT PCR) came out at 1.3 times. Moreover, the “insulin tolerance test: final blood sugar decreased as compared with the control group” value in test [3] (insulin 3 unit/kg) is reported as 58%. Besides, the “blood sugar after food intake, lower than that of the control group” value in test [3] (oral 10 mg/kg/day, 4 weeks) is 27%. In test [3] (oral 10 mg/kg/day, 4 weeks, fasted 15 hours), the “blood sugar at the time of an empty stomach, reduction” value stood at 28%. Further, the “blood insulin concentration, relative to that of the control group” value in test [3] (oral 10 mg/kg/day, 4 weeks, plasma, Elisa Kit) was determined as 73%.

`C#CCOCC1=C[C@]2(C=C(C)C[C@@H](/C=C(\C)CCC=C(C)C)O2)O[C@@H]2C=C(C)C(=O)C[C@H]12` [Compound 8] gave a pEC50 on Nurr1 of 7.60. The pIC50 in the test with LXR was 7.07.

The term pEC50 denotes −log10 of the EC50, conventionally taken in molar units. A higher pEC50 goes with a low EC50. As a reminder, the pIC50 is the negative decadic logarithm of the IC50, by convention in mol/L. Read a high pIC50 as a low IC50.
